Molecular target: T1, Atm1p (Saccharomyces cerevisiae, UniProt P40416)
T1 sequence (P40416 27-690): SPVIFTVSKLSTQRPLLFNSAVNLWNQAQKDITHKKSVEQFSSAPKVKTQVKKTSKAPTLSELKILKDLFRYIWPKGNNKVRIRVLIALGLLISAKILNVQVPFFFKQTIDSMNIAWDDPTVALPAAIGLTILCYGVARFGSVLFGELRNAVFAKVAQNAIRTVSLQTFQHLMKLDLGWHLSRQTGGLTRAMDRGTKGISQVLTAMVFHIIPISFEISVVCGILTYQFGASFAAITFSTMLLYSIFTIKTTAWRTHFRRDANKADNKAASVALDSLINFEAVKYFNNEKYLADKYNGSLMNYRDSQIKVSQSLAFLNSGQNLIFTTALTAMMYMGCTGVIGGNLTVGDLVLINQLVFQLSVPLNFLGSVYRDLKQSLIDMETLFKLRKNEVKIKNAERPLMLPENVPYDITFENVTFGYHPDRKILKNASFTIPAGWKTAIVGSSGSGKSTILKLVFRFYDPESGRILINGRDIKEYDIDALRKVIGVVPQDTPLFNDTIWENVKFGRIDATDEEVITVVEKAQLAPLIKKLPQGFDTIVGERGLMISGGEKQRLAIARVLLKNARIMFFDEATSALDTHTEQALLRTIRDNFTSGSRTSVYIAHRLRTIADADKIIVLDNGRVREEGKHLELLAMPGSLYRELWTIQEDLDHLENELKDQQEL
Test: titration of labeled cluster to Atm1p
Assay type: binding
Conditions: labelled compound

fluorescein-labeled glutathione [2Fe-2S] cluster
Kd: 118 ± 11 µM

— article PMC4522903 (Chemical communications (Cambridge, England), 2015)
